# Measurements reported in paper PMC3820767, “Turning Defense into Offense: Defensin Mimetics as Novel Antibiotics Targeting Lipid II” (PLoS Pathogens, 2013).
# Tested on: S. aureus ATCC 29213
# Assay: Murine peritoneal sepsis model
# Assay type: in vivo, C57BL/6J mice
# Conditions: mice n = 5, i.p. treatment 1 h and 4 h post-infection; compound […], vancomycin/lysostaphin 5 mg/kg
# Procedure: Mice were fed standard chow (Harlan Laboratories) and water ad libitum. […] Animals were closely observed during a period of 24 hours and mice that show signs of severe sepsis were humanely euthanized. Blood samples were collected by retro-orbital puncture at the indicated intervals post-infection using lithium-heparin polystyrene tubes to prevent coagulation. […] Whole blood samples and spleen homogenates were serially diluted and plated onto LB agar plates.
smiles,measurement,value
"CN1/C(=C/C=C/c2cc(-c3ccccc3)cc(-c3ccccc3)[o+]2)C(C)(C)c2ccccc21 [BAS00127538, 2,4-diphenyl-6-[(1E)-3-[(2E)-1,3,3-trimethyl-2,3-dihydro-1H-indol-2-ylidene]prop-1-en-1-yl]-1$l^4-pyran-1-ylium]",survival,4 out of five animals
